Test results reported in US12606572B2, “Substituted heterocycles and uses thereof” (Kumquat Biosciences Inc., priority 2023, dated 2026).

Columns and labels:
KRAS WT = molecular target: T1, KRAS WT (Homo sapiens, UniProt P01116); experiment: HTRF assay, interaction of GST-tagged K-Ras with His-tagged hSOS1 (KRAS wildtype); type: biochemical; conditions: <500 nM, read-out: Inhibition of KRAS WT (IC50)
T1 construct: made in house; host or cells: E. coli BL21 (DE3)
From the text: (§1) This assay can be also used to assess a selective inhibition or reduction of signaling output of a mutant Ras protein relative to a wildtype, or relative to a different mutant Ras protein. For example, the equilibrium interaction of wildtype KRAS or K-Ras mutant (e.g., wildtype or a mutant thereof) with SOS1 (e.g., hSOS1) can be assessed as a proxy or an indication for the ability of a subject compound to bind and inhibit Ras protein. The HTRF assay detects from (i) a fluorescence resonance energy transfer (FRET) donor (e.g., antiGST-Europium) that is bound to GST-tagged K-Ras mutant to (ii) a FRET acceptor (e.g., anti-6His-XL665) bound to a His-tagged hSOS1.
(§2) The assay buffer can contain ˜5 mM HEPES pH 7.4, ˜150 mM NaCl, ˜1 mM DTT, 0.05% BSA and 0.0025% (v/v) Igepal. A Ras working solution is prepared in an assay buffer containing typically a suitable amount of the protein construct (e.g., GST-tagged K-Ras mutant) and the FRET donor (e.g., antiGST-Eu(K) from Cisbio, France). A SOS1 working solution is prepared in an assay buffer containing suitable amount of the protein construct (e.g., His-hSOS1) and the FRET acceptor (e.g., anti-6His-XL665 from Cisbio, France). A suitable amount of the protein construct will depend on the range of activity or range of IC50 values being detected or under investigation. For detecting an IC50 within a range of 500 nM, the protein constructs of the same range of molarity can be utilized.
(§3) A fixed volume of DMSO with or without test compound is transferred into a 384-well plate. Ras working solution is added to all wells of the test plate. SOS1 working solution is added to all wells except for those that are subsequently filled with inhibitor control solution. Upon incubation for about 10 minutes or longer, the fluorescence is measured with a M1000Pro plate reader (Tecan) using HTRF detection (excitation 337 nm, emission 1: 620 nm, emission 2: 665 nm). Compounds are tested in duplicate at different concentrations (for example, 10 μM, 2.5 μM, 0.63 μM, 0.16 μM, 0.04 μM, 0.01 μM test compound). The ratiometric data (i.e., emission 2 divided by emission 1) is used to calculate IC50 values against Ras using GraphPad Prism (GraphPad software). Signaling output measured in terms of IC50 values can be obtained and a ratio of IC50 against one mutant relative to another mutant can be calculated. For instance, a selective reduction of K-Ras G12S signaling output can be evidenced by a ratio greater than one. In particular, a selective reduction of K-Ras G12S signaling relative to K-Ras WT signaling is evidenced if the ratio of IC50 (against K-Ras WT) to IC50 (against K-Ras G12S) is greater than 1.

KRAS G12S = molecular target: T2, KRAS G12S (Homo sapiens, UniProt P01116, G12S); experiment: HTRF assay, interaction of GST-tagged K-Ras with His-tagged hSOS1 (KRAS G12S); type: biochemical; conditions: <500 nM, read-out: Inhibition of KRAS G12S (IC50)
T2 construct: made in house; host or cells: E. coli BL21 (DE3)
T2 sequence (P01116 1-188 isoform P01116-2 G12S): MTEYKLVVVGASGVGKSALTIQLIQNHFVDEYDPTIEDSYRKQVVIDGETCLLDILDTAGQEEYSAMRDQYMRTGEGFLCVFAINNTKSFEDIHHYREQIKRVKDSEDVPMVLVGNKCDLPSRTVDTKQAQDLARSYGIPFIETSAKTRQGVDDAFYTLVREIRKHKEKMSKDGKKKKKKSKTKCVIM
From the text: as §1, §2, §3

T1 sequence (P01116 1-188 isoform P01116-2): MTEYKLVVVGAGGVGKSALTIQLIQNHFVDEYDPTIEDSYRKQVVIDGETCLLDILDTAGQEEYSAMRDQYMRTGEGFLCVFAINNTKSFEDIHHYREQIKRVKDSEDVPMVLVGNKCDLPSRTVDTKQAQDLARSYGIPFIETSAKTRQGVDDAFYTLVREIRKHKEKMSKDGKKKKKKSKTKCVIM

| SMILES | IC50 (KRAS WT) [nM] | IC50 (KRAS G12S) [nM] |
| --- | --- | --- |
| C[C@@H]1[C@H](N2C[C@H](C)Oc3c(Cl)c(-c4ccc(F)c5sc(N)c(C#N)c45)c(F)c4nc(OC[C@@]56CCCN5C[C@H](F)C6)nc2c34)CCN1C(=O)n1cnc(Cl)n1 (atropisomer, axis not shown; (aS)) [Compound 407, 2-amino-4-((6S,9R)-8-chloro-4-((2R,3R)-1-(3-chloro-1H-1,2,4-triazole-1-carbonyl)-2-methylpyrrolidin-3-yl)-10-fluoro-2-(((2R,7aS)-2-fluorotetrahydro-1H-pyrrolizin-7a (5H)-yl)methoxy)-6-methyl-5,6-dihydro-4H-[1,4]oxazepino[5,6,7-de]quinazolin-9-yl)-7-fluorobenzo[b]thiophene-3-carbonitrile] | < 500 | < 500 |
| C=CC(=O)N1CC[C@@H](N2CCOc3c(Cl)c(-c4ccc(F)c5sc(N)c(C#N)c45)c(F)c4nc(OC[C@@]56CCCN5C[C@H](F)C6)nc2c34)[C@H]1C [Compound 470, 4-(4-((2R,3R)-1-acryloyl-2-methylpyrrolidin-3-yl)-8-chloro-10-fluoro-2-(((2R, 7aS)-2-fluorotetrahydro-1H-pyrrolizin-7a(5H)-yl)methoxy)-5,6-dihydro-4H-[1,4]oxazepino[5,6,7-de]quinazolin-9-yl)-2-amino-7-fluorobenzo[b]thiophene-3-carbonitrile] | < 500 | < 500 |
| C=C(C(=O)N1CC(CN2CCOc3c(Cl)c(-c4ccc(F)c5sc(N)c(C#N)c45)c(F)c4nc(OC[C@@]56CCCN5C[C@H](F)C6)nc2c34)C1)C1CC1 [Compound 447, 2-amino-4-(8-chloro-4-((1-(2-cyclopropylacryloyl)azetidin-3-yl)methyl)-10-fluoro-2-(((2R,7aS)-2-fluorotetrahydro-1H-pyrrolizin-7a(5H)-yl)methoxy)-5,6-dihydro-4H-[1,4]oxazepino [5,6,7-de]quinazolin-9-yl)-7-fluorobenzo[b]thiophene-3-carbonitrile] | < 500 | < 500 |
| C[C@@H]1[C@H](N2C[C@H](C)Oc3nc(-c4ccc(F)c5sc(N)c(C#N)c45)c(F)c4nc(OC[C@@]56CCCN5C[C@H](F)C6)nc2c34)CCN1C(=O)n1cnc(Cl)n1 [Compound 461, 2-amino-4-((S)-10-((2R,3R)-1-(3-chloro-1H-1,2,4-triazole-1-carbonyl)-2-methylpyrrolidin-3-yl)-4-fluoro-2-(((2R,7aS)-2-fluorotetrahydro-1H-pyrrolizin-7a(5H)-yl)methoxy)-8-methyl-9,10-dihydro-8H-7-oxa-1,3,6,10-tetraazacyclohepta[de]naphthalen-5-yl)-7-fluorobenzo[b]thiophene-3-carbonitrile] | < 500 | < 500 |
| C[C@@H]1[C@H](N2CCCOc3c(Cl)c(-c4ccc(F)c5sc(N)c(C#N)c45)c(F)c4nc(OC[C@@]56CCCN5C[C@H](F)C6)nc2c34)CCN1C(=O)n1ccnc1 [Compound 481, 4-(4-((2R,3R)-1-(1H-imidazole-1-carbonyl)-2-methylpyrrolidin-3-yl)-9-chloro-11-fluoro-2-(((2R,7aS)-2-fluorotetrahydro-1H-pyrrolizin-7a(5H)-yl)methoxy)-4,5,6,7-tetrahydro-[1,5]oxazocino[4,3,2-de]quinazolin-10-yl)-2-amino-7-fluorobenzo[b]thiophene-3-carbonitrile] | < 500 | < 500 |
| N#Cc1c(N)sc2c(F)ccc(-c3c(Cl)c4c5c(nc(OC[C@@]67CCCN6C[C@H](F)C7)nc5c3F)N(CC3(O)CN(C(=O)n5ccnc5)C3)CCO4)c12 [Compound 463, 2-amino-4-(8-chloro-10-fluoro-2-(((2R,7aS)-2-fluorotetrahydro-1H-pyrrolizin-7a(5H)-yl)methoxy)-4-((3-hydroxy-1-(1H-imidazole-1-carbonyl)azetidin-3-yl)methyl)-5,6-dihydro-4H-[1,4]oxazepino [5,6,7-de]quinazolin-9-yl)-7-fluorobenzo[b]thiophene-3-carbonitrile] | < 500 | < 500 |
| Cc1cn(C(=O)N2CC[C@@H](N3CCOc4nc(-c5cc(N)c(F)c(C)c5C(F)(F)F)c(F)c5nc(OC[C@@]67CCCN6C[C@H](F)C7)nc3c45)[C@H]2C)c(C)n1 [Compound 487, ((2R,3R)-3-(5-(5-amino-4-fluoro-3-methyl-2-(trifluoromethyl)phenyl)-4-fluoro-2-(((2R,7aS)-2-fluorotetrahydro-1H-pyrrolizin-7a(5H)-yl)methoxy)-8,9-dihydro-10H-7-oxa-1,3,6,10-tetraazacyclohepta[de]naphthalen-10-yl)-2-methylpyrrolidin-1-yl)(2,4-dimethyl-1H-imidazol-1-yl) methanone] | < 500 | < 500 |
| CC1([C@@H]2[C@H](CN3CCOc4c(Cl)c(-c5ccc(F)c6sc(N)c(C#N)c56)c(F)c5nc(OC[C@@]67CCCN6C[C@H](F)C7)nc3c45)CN2C(=O)n2cnc(F)n2)CC1 (single isomer, unassigned) [Compound 420] | < 500 | < 500 |
| Cc1cn(C(=O)N(C)[C@@H]2C[C@@H]3CCOc4c(Cl)c(-c5ccc(F)c6sc(N)c(C#N)c56)c(F)c5nc(OC[C@@]67CCCN6C[C@H](F)C7)nc(c45)N3C2)cn1 (single isomer, unassigned) [Compound 472] | < 500 | < 500 |
| Cc1cn(C(=O)N2CC[C@@H](N3CCOc4c(Cl)c(-c5ccc(F)c6sc(N)c(C#N)c56)c(F)c5nc(OC[C@@]67CCCN6C[C@H](F)C7)nc3c45)[C@H]2C)c(C)n1 [Compound 403, 2-amino-4-(8-chloro-4-((2R,3R)-1-(2,4-dimethyl-1H-imidazole-1-carbonyl)-2-methylpyrrolidin-3-yl)-10-fluoro-2-(((2R,7aS)-2-fluorotetrahydro-1H-pyrrolizin-7a(5H)-yl)methoxy)-5,6-dihydro-4H-[1,4]oxazepino[5,6,7-de]quinazolin-9-yl)-7-fluorobenzo[b]thiophene-3-carbonitrile] | < 500 | < 500 |
| C=C(F)C(=O)N1CC(CN2CCOc3c(Cl)c(-c4ccc(F)c5sc(N)c(C#N)c45)c(F)c4nc(OC[C@@]56CCCN5C[C@H](F)C6)nc2c34)C1 [Compound 491, 2-amino-4-(8-chloro-10-fluoro-4-((1-(2-fluoroacryloyl)azetidin-3-yl)methyl)-2-(((2R,7aS)-2-fluorotetrahydro-1H-pyrrolizin-7a(5H)-yl)methoxy)-5,6-dihydro-4H-[1,4]oxazepino[5,6,7-de]quinazolin-9-yl)-7-fluorobenzo[b]thiophene-3-carbonitrile] | < 500 | < 500 |
| C[C@@H]1C(CN2CCOc3c(Cl)c(-c4ccc(F)c5sc(N)c(C#N)c45)c(F)c4nc(OC[C@@]56CCCN5C[C@H](F)C6)nc2c34)CN1C(=O)n1ccnc1 (stereo partly drawn) [Compound 413, 4-(4-(((2R)-1-(1H-imidazole-1-carbonyl)-2-methylazetidin-3-yl)methyl)-8-chloro-10-fluoro-2-(((2R,7aS)-2-fluorotetrahydro-1H-pyrrolizin-7a(5H)-yl)methoxy)-5,6-dihydro-4H-[1,4]oxazepino[5,6,7-de]quinazolin-9-yl)-2-amino-7-fluorobenzo[b]thiophene-3-carbonitrile] | < 500 | < 500 |
